From PubChem BioAssay (NCI)
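Values below derive from 48-hour exposures of cells grown in 96-well plates, with endpoints linearly interpolated between the two concentrations bracketing the appropriate inhibition level. At the GI50, growth is halved. TGI denotes the concentration required for complete inhibition of growth.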

Experiments:
Assay in all cases: DTP human tumour cell line panel, 48 h
[1] = tested on: HS 578T breast
[2] = tested on: M14 melanoma
[3] = tested on: TK-10 renal
[4] = tested on: SF-268 CNS
[5] = tested on: K-562 leukemia
[6] = tested on: MOLT-4 leukemia
[7] = tested on: SN12C renal
[8] = tested on: SW-620 colon
[9] = tested on: NCI/ADR-RES ovarian
[10] = tested on: MDA-MB-231 breast
[11] = tested on: CCRF-CEM leukemia
[12] = tested on: OVCAR-5 ovarian
[13] = tested on: SK-MEL-5 melanoma
[14] = tested on: EKVX NSCLC
[15] = tested on: SF-295 CNS
[16] = tested on: LOX IMVI melanoma
[17] = tested on: MCF7 breast
[18] = tested on: HCT-15 colon
[19] = tested on: RPMI-8226 leukemia
[20] = tested on: HCT-116 colon
[21] = tested on: SK-OV-3 ovarian
[22] = tested on: T-47D breast
[23] = tested on: DU-145 prostate
[24] = tested on: UACC-62 melanoma
[25] = tested on: SNB-19 CNS
[26] = tested on: U251 CNS
[27] = tested on: HL-60(TB) leukemia
[28] = tested on: UACC-257 melanoma
[29] = tested on: HCC-2998 colon
[30] = tested on: HT29 colon
[31] = tested on: KM12 colon
[32] = tested on: PC-3 prostate
[33] = tested on: UO-31 renal
[34] = tested on: BT-549 breast
[35] = tested on: HOP-62 NSCLC
[36] = tested on: A549 NSCLC
[37] = tested on: HOP-92 NSCLC
[38] = tested on: NCI-H23 lung
[39] = tested on: RXF 393 renal
[40] = tested on: COLO 205 colon
[41] = tested on: NCI-H522 lung
[42] = tested on: A498 renal
[43] = tested on: CAKI-1 renal
[44] = tested on: ACHN renal
[45] = tested on: OVCAR-8 ovarian
[46] = tested on: SK-MEL-2 melanoma
[47] = tested on: SK-MEL-28 melanoma
[48] = tested on: 786-0 renal
[49] = tested on: IGROV1 ovarian
[50] = tested on: MALME-3M melanoma
[51] = tested on: OVCAR-3 ovarian
[52] = tested on: SNB-75 CNS
[53] = tested on: MDA-MB-435
[54] = tested on: OVCAR-4 ovarian
[55] = tested on: NCI-H460 lung
[56] = tested on: SR leukemia
[57] = tested on: NCI-H226 lung

O=C(/C=C1\N=C(c2ccccc2)N(c2ccc3c(c2)Sc2cc(N4C(=O)/C(=C/C(=O)/C=C/c5ccccc5)N=C4c4ccccc4)ccc2N3)C1=O)/C=C/c1ccccc1
TGI [1]: 96.3 µM | TGI [2]: > 100 µM | TGI [3]: > 100 µM | TGI [4]: > 100 µM | TGI [5]: > 100 µM | TGI [6]: > 100 µM | TGI [7]: > 100 µM | TGI [8]: > 100 µM | TGI [9]: > 100 µM | TGI [10]: 90 µM | TGI [11]: 63 µM | TGI [12]: 48.8 µM | TGI [13]: 33.5 µM | TGI [14]: > 100 µM | TGI [15]: 57 µM | TGI [16]: 84.9 µM | TGI [17]: 56.1 µM | TGI [18]: > 100 µM | TGI [19]: > 100 µM | TGI [20]: > 100 µM | TGI [21]: 33.8 µM | TGI [22]: > 100 µM | TGI [23]: > 100 µM | TGI [24]: 33.3 µM | TGI [25]: 80 µM | TGI [26]: 57.8 µM | TGI [27]: > 100 µM | TGI [28]: 83 µM | TGI [29]: > 100 µM | TGI [30]: > 100 µM | TGI [31]: > 100 µM | TGI [32]: 37.6 µM | TGI [33]: > 100 µM | TGI [34]: 52.6 µM | TGI [35]: > 100 µM | TGI [36]: > 100 µM | TGI [37]: > 100 µM | TGI [38]: > 100 µM | TGI [39]: > 100 µM | TGI [40]: > 100 µM | TGI [41]: 46.8 µM | TGI [42]: 67.8 µM | TGI [43]: > 100 µM | TGI [44]: > 100 µM | TGI [45]: > 100 µM | TGI [46]: 38.2 µM | TGI [47]: > 100 µM | TGI [48]: > 100 µM | TGI [49]: > 100 µM | TGI [50]: 55.8 µM | TGI [51]: 43.6 µM | TGI [52]: 45.6 µM | TGI [53]: 44.4 µM | TGI [54]: 41.8 µM | TGI [55]: > 100 µM

NC(N)=Nc1ccc(-n2nc(C(F)(F)F)cc2-c2ccc3c(ccc4ccccc43)c2)cc1
GI50 [1]: 1.59 µM | TGI [1]: 4.34 µM | GI50 [6]: 2.35 µM | TGI [6]: 4.92 µM | GI50 [9]: 3.14 µM | TGI [9]: 15.6 µM | GI50 [11]: 2.05 µM | TGI [11]: 5.53 µM | GI50 [19]: 2.16 µM | TGI [19]: 5.06 µM | GI50 [27]: 1.09 µM | TGI [27]: 2.82 µM

C#CCNC(Cc1ccccc1)C(=O)O (configuration not stated)
TGI [1]: > 100 µM | TGI [2]: > 100 µM | TGI [3]: > 100 µM | TGI [4]: > 100 µM | TGI [5]: > 100 µM | TGI [6]: > 100 µM | TGI [8]: > 100 µM | TGI [9]: > 100 µM | TGI [10]: > 100 µM | TGI [11]: > 100 µM | TGI [12]: > 100 µM | TGI [13]: > 100 µM | TGI [14]: > 100 µM | TGI [15]: > 100 µM | TGI [16]: > 100 µM | TGI [18]: > 100 µM | TGI [19]: > 100 µM | TGI [20]: > 100 µM | TGI [21]: > 100 µM | TGI [22]: > 100 µM | TGI [23]: > 100 µM | TGI [24]: > 100 µM | TGI [25]: > 100 µM | TGI [26]: > 100 µM | TGI [27]: > 100 µM | TGI [56]: > 100 µM | TGI [28]: > 100 µM | TGI [29]: > 100 µM | TGI [30]: > 100 µM | TGI [31]: > 100 µM | TGI [32]: > 100 µM | TGI [33]: > 100 µM | TGI [34]: > 100 µM | TGI [35]: > 100 µM | TGI [36]: > 100 µM | TGI [37]: > 100 µM | TGI [38]: > 100 µM | TGI [39]: > 100 µM | TGI [40]: > 100 µM | TGI [41]: > 100 µM | TGI [42]: > 100 µM | TGI [57]: > 100 µM | TGI [43]: > 100 µM | TGI [44]: > 100 µM | TGI [45]: > 100 µM | TGI [46]: > 100 µM | TGI [47]: > 100 µM | TGI [48]: > 100 µM | TGI [49]: > 100 µM | TGI [50]: > 100 µM | TGI [51]: > 100 µM | TGI [52]: > 100 µM | TGI [53]: > 100 µM | TGI [54]: > 100 µM | TGI [55]: > 100 µM

COc1cc2c(cc1-c1c(C)noc1C)ncc1nc(C3CCCCC3)n(C3CCC(OC(F)F)CC3)c12 (configuration not stated)
GI50 [1]: 3.74 µM | TGI [1]: > 100 µM | GI50 [4]: 5.05 µM | TGI [4]: > 100 µM | GI50 [5]: 1.75 µM | TGI [5]: > 100 µM | GI50 [10]: 1.72 µM | TGI [10]: > 100 µM | GI50 [12]: 3 µM | TGI [12]: > 100 µM | GI50 [14]: 2.31 µM | TGI [14]: > 100 µM | GI50 [17]: 0.584 µM | TGI [17]: > 100 µM | GI50 [23]: 3.52 µM | TGI [23]: > 100 µM | GI50 [27]: 1.26 µM | TGI [27]: 3.97 µM | GI50 [31]: 3.43 µM | TGI [31]: > 100 µM | GI50 [35]: 1.97 µM | TGI [35]: > 100 µM | GI50 [36]: 2.89 µM | TGI [36]: > 100 µM | GI50 [37]: 1.53 µM | TGI [37]: 4.62 µM | GI50 [38]: 2.49 µM | TGI [38]: > 100 µM | GI50 [39]: 1.33 µM | TGI [39]: 3.99 µM | GI50 [43]: 1.03 µM | TGI [43]: > 100 µM | GI50 [45]: 2.74 µM | TGI [45]: > 100 µM | GI50 [47]: 1.67 µM | TGI [47]: > 100 µM | GI50 [49]: 3.94 µM | TGI [49]: > 100 µM | GI50 [52]: 0.511 µM | TGI [52]: > 100 µM | GI50 [53]: 2.14 µM | TGI [53]: > 100 µM | GI50 [54]: 2.17 µM | TGI [54]: > 100 µM | GI50 [55]: 2.53 µM | TGI [55]: > 100 µM

C=C1C(=O)O[C@H]2C1C[C@@H](O)[C@@]1(C)OC1CC[C@@]1(C)O[C@H]21 (some centres not stated)
TGI [1]: 98.8 µM | TGI [2]: 31.3 µM | TGI [3]: 35.3 µM | TGI [4]: > 100 µM | TGI [5]: 32.5 µM | TGI [6]: 24.8 µM | TGI [7]: 42.4 µM | TGI [8]: 38.5 µM | TGI [9]: 64 µM | TGI [10]: 40.7 µM | TGI [11]: 23.1 µM | TGI [12]: 63.9 µM | TGI [13]: 29.6 µM | TGI [14]: 36 µM | TGI [15]: > 100 µM | TGI [16]: 27.5 µM | TGI [17]: 29 µM | TGI [18]: 37.9 µM | TGI [19]: 32.1 µM | TGI [20]: 34.3 µM | TGI [21]: > 100 µM | TGI [23]: > 100 µM | TGI [24]: 31.4 µM | TGI [25]: > 100 µM | TGI [26]: > 100 µM | TGI [56]: 39.8 µM | TGI [28]: 42.3 µM | TGI [29]: 30.7 µM | TGI [30]: 98.9 µM | TGI [31]: 53.2 µM | TGI [32]: 83.9 µM | TGI [33]: 32.5 µM | TGI [36]: > 100 µM | TGI [37]: 32.6 µM | TGI [38]: 37.4 µM | TGI [39]: 34.4 µM | TGI [40]: 25.8 µM | TGI [41]: 20 µM | TGI [43]: 34.1 µM | TGI [44]: 27 µM | TGI [45]: > 100 µM | TGI [46]: 47.1 µM | TGI [47]: 38.8 µM | TGI [48]: 40.9 µM | TGI [50]: 29.2 µM | TGI [52]: > 100 µM | TGI [53]: 60 µM | TGI [54]: 30.3 µM | TGI [55]: > 100 µM
